A word on the IC50: it is the concentration at which inhibition is half-maximal. As a reminder, the inhibition is the relative decrease from the control value, in per cent. The term melting point denotes the temperature of the solid-liquid transition.

One series concerns the target T1, hMAO-A (Homo sapiens, UniProt P21397).
T1 sequence (P21397 1-527): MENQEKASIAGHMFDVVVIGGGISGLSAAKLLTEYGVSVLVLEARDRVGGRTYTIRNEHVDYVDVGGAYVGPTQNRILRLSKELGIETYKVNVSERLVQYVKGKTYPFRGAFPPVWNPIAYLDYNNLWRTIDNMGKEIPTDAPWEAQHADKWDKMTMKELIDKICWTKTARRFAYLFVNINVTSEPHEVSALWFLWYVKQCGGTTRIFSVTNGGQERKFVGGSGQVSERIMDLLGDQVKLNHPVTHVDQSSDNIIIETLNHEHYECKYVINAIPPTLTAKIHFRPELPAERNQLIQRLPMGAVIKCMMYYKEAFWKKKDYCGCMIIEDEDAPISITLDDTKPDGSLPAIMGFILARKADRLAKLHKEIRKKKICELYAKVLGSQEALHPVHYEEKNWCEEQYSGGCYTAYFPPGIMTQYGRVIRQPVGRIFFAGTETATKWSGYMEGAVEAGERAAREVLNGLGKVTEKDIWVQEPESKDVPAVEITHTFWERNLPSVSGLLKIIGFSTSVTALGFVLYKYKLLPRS
Briefly: hMAO inhibition assay (Amplex Red fluorescence), hMAO-A, p-tyramine substrate. It counts as biochemical. Particulars: for IC50: recombinant hMAO-A. As to the method: The hMAO inhibition assay was performed as previously described. Adequate amounts of recombinant hMAO-A/B were acquired and adjusted to 12.5 µg/mL or 75 µg/mL for hMAO-A or hMAO-B, respectively, with sodium phosphate buffer (50 mM, pH 7.4). The test compounds were dissolved in DMSO as stock solutions (10 mM) and diluted with sodium phosphate buffer (50 mM, pH 7.4) to the corresponding concentrations. Then the test compounds (20 µL) and hMAO (80 µL) were incubated for 15 min at 37 °C in a flat, black-bottomed 96-well microtest plate in the dark. The reaction was initiated by adding Amplex Red reagent (200 µM, final concentration), horseradish peroxidase (2 U/mL, final concentration), and 2 mM p-tyramine for hMAO-A or 2 mM benzylamine (final concetration) for hMAO-B and incubated at 37 °C for 20 min. Activity was quantified in a multi detection microplate fluorescence reader (SpectraMax M5, Molecular Devices, USA) based on the fluorescence generated (excitation, 545 nm; emission, 590 nm). The specific fluorescence emission was calculated after subtraction of the background activity. The background activity was determined from wells containing all components except the hMAO isoforms, which were replaced by a sodium phosphate buffer solution. The percentage inhibition was calculated by the following expression: (1 – IFi/IFc) × 100, in which IFi and IFc are the fluorescence intensities obtained for hMAO in the presence and absence of inhibitors after subtracting the respective background. […]

The next series has as its target T2, hMAO-B (Homo sapiens, UniProt P27338).
T2 sequence (P27338 1-520): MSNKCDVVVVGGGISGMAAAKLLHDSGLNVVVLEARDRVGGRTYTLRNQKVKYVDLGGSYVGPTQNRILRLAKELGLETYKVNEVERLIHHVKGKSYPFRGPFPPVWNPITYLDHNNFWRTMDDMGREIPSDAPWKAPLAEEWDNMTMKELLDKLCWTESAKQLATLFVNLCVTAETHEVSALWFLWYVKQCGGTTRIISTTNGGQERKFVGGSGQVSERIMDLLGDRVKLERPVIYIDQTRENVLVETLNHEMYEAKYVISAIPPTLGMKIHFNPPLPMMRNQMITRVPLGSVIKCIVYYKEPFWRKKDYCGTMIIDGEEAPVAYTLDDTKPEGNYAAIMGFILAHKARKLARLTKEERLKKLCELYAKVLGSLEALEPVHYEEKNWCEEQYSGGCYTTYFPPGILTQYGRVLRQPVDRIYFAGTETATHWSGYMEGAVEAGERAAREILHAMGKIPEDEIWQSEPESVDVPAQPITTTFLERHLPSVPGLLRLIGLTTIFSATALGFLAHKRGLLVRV
Put plainly: hMAO inhibition assay (Amplex Red fluorescence), hMAO-B, benzylamine substrate. It is filed as biochemical. Particulars: for Selectivity Index (SI): SI = IC50 (hMAO-A)/IC50 (hMAO-B); for IC50: recombinant hMAO-B, read-out: hMAO-B IC50; for inhibition at 1 µM: tested concentration 1 µM; for fold higher inhibitory potency than 4: from IC50, versus compound 4. As to the method:
The hMAO inhibition assay was performed as previously described. […] The test compounds were dissolved in DMSO as stock solutions (10 mM) and diluted with sodium phosphate buffer (50 mM, pH 7.4) to the corresponding concentrations. […] The specific fluorescence emission was calculated after subtraction of the background activity. The background activity was determined from wells containing all components except the hMAO isoforms, which were replaced by a sodium phosphate buffer solution. The percentage inhibition was calculated by the following expression: (1 – IFi/IFc) × 100, in which IFi and IFc are the fluorescence intensities obtained for hMAO in the presence and absence of inhibitors after subtracting the respective background.

`O=C(/C=C/c1ccc2c(c1)OCO2)c1cccc(Br)c1` [Compound 27, (E)-3-(benzo[d][1,3]dioxol-5-yl)-1–(3-bromophenyl)prop-2-en-1-one] yielded a melting point of 111.8 to 112.6 °C. In addition, on hMAO-A, the IC50 is greater than 40 µM. On hMAO-B, the “Selectivity Index (SI)” value is listed as greater than 143, the IC50 is 0.28 ± 0.002 µM and testing at 1 µM gave an inhibition of 80.4%.
Take `O=C(/C=C/c1ccc2c(c1)OCCO2)c1ccc(Cl)c(Cl)c1` [Compound 23, (E)-1-(3,4-dichlorophenyl)-3–(2,3-dihydrobenzo[b][1,4]dioxin-6-yl)prop-2-en-1-one]: the melting point lay in the range of 156.6 to 157.9 °C. At hMAO-A, the concentration for half-maximal inhibition (IC50) is greater than 40 µM. In addition, on hMAO-B, the “Selectivity Index (SI)” value is on record as greater than 235, the IC50 was 0.17 ± 0.02 µM and at 1 µM the inhibition was 88.8%.
For `O=C(/C=C/c1ccc2c(c1)OCO2)c1ccccc1` [Compound 3, (E)-3-(benzo[d][1,3]dioxol-5-yl)-1-phenylprop-2-en-1-one], on hMAO-A, the IC50 is greater than 40 µM. The same compound showed an inhibition at 1 µM against hMAO-B of 50.8%.
In turn, `COc1cccc(C(=O)/C=C/c2ccc3c(c2)OCCO3)c1` [Compound 6, (E)-3-(2,3-dihydrobenzo[b][1,4]dioxin-6-yl)-1–(3-methoxyphenyl)prop-2-en-1-one] gave a melting point of 94.4 to 95.6 °C. In addition, the IC50 at hMAO-A is greater than 40 µM. At hMAO-B, the “Selectivity Index (SI)” value is greater than 118, the IC50 came out at 0.34 ± 0.01 µM and testing at 1 µM gave an inhibition of 78%.
For `O=C(/C=C/c1ccc2c(c1)OCCO2)c1ccc(Cl)cc1O` [Compound 26, (E)-1-(4-chloro-2-hydroxyphenyl)-3-(2,3-dihydrobenzo[b][1,4]dioxin-6-yl)prop-2-en-1-one], the melting point was 155.7 to 156.1 °C. The IC50 at hMAO-A was greater than 40 µM. On hMAO-B, this compound displayed an inhibition at 1 µM of 62.3%.
On to `O=C(/C=C/c1ccc2c(c1)OCCO2)c1ccccc1Br` [Compound 14, (E)-1-(2-bromophenyl)-3-(2,3-dihydrobenzo[b][1,4]dioxin-6-yl)prop-2-en-1-one], for which the melting point is 70.3 to 72.2 °C. In addition, the IC50 on hMAO-A is greater than 40 µM. Also, on hMAO-B, the “Selectivity Index (SI)” value was greater than 494, the “fold higher inhibitory potency than 4” value is on record as 1.8–4.1 fold, the IC50 was determined as 0.081 ± 0.004 µM and at 1 µM the inhibition was 92.6%.
Consider `O=C(/C=C/c1ccc2c(c1)OCCO2)c1cccc(F)c1` [Compound 15, (E)-3-(2,3-dihydrobenzo[b][1,4]dioxin-6-yl)-1-(3-fluorophenyl)prop-2-en-1-one], for which the IC50 at hMAO-A was greater than 40 µM. Moreover, on hMAO-B, the “Selectivity Index (SI)” value is on record as greater than 308, the “fold higher inhibitory potency than 4” value is 1.7–4 fold, the IC50 is 0.13 ± 0.007 µM and testing at 1 µM gave an inhibition of 89.2%.
With `O=C(/C=C/c1ccc2c(c1)OCCO2)c1ccccc1` [Compound 4, (E)-3-(2,3-dihydrobenzo[b][1,4]dioxin-6-yl)-1-phenylprop-2-en-1-one], the concentration for half-maximal inhibition (IC50) on hMAO-A was greater than 40 µM. Further, at hMAO-B, the “Selectivity Index (SI)” value was greater than 186 and the inhibition at 1 µM came out at 84.9%. The “fold higher hMAO-B inhibition than 1” value at hMAO-B (from IC50, versus compound 1) is 55 fold.
On to `O=C(/C=C/c1ccc2c(c1)OCCO2)c1ccc(C(F)(F)F)cc1` [Compound 21, (E)-3-(2,3-dihydrobenzo[b][1,4]dioxin-6-yl)-1-(4-(trifluoromethyl)phenyl)prop-2-en-1-one], for which the melting point is 139 to 140.2 °C. For the same compound, on hMAO-A, the half-inhibitory concentration (IC50) is greater than 40 µM. Besides, on hMAO-B, the “Selectivity Index (SI)” value was greater than 174, the IC50 came out at 0.23 ± 0.0005 µM and the inhibition at 1 µM was found to be 76.8%.
With `C#CCN(C)CCCOc1ccc(Cl)cc1Cl` [clorgyline, reference compound], the inhibition at 0.1 µM on hMAO-A (read-out: hMAO-A % inhibition) was determined as 86.6%.
On to `O=C(/C=C/c1ccc2c(c1)OCCO2)c1ccccc1O` [Compound 5, (E)-3-(2,3-dihydrobenzo[b][1,4]dioxin-6-yl)-1-(2-hydroxyphenyl)prop-2-en-1-one], for which the melting point lay within 120.8 to 122.3 °C. Also, the IC50 at hMAO-A was greater than 40 µM. Also, at hMAO-B, the “Selectivity Index (SI)” value is reported as greater than 133, the IC50 amounted to 0.3 ± 0.02 µM and at 1 µM the inhibition was 75%.
Taken in the same sequence, the figures for `O=C(/C=C/c1ccc2c(c1)OCCO2)c1cc(Br)ccc1O` [Compound 24, (E)-1-(5-bromo-2-hydroxyphenyl)-3-(2,3-dihydrobenzo[b][1,4]dioxin-6-yl)prop-2-en-1-one] were 141.8 to 143.7 °C, greater than 40 µM, greater than 160, 0.25 ± 0.03 µM and 77.1%.
Regarding `O=C(/C=C/c1ccc2c(c1)OCCO2)c1ccc(O)cc1O` [Compound 10, (E)-3-(2,3-dihydrobenzo[b][1,4]dioxin-6-yl)-1–(2,4-dihydroxyphenyl)prop-2-en-1-one], the melting point lay in the range of 169.5 to 170.8 °C. Also, the IC50 on hMAO-A was greater than 40 µM. At hMAO-B, this compound gave an inhibition at 1 µM of 69.5%.
Compound `O=C(/C=C/c1ccc2c(c1)OCCO2)c1ccccc1F` [Compound 12, (E)-3–(2,3-dihydrobenzo[b][1,4]dioxin-6-yl)-1-(2-fluorophenyl)prop-2-en-1-one] yielded a melting point of 93.7 to 95.4 °C. The IC50 on hMAO-A is greater than 40 µM. In addition, on hMAO-B, the “Selectivity Index (SI)” value was greater than 333, the “fold higher inhibitory potency than 4” value is reported as 1.8–4.1 fold, the half-inhibitory concentration (IC50) stood at 0.12 ± 0.01 µM and the inhibition at 1 µM was found to be 89.2%.
Regarding `COc1ccc(C(=O)/C=C/c2ccc3c(c2)OCCO3)cc1OC` [Compound 11, (E)-3–(2,3-dihydrobenzo[b][1,4]dioxin-6-yl)-1–(3,4-dimethoxyphenyl)prop-2-en-1-one], the melting point lay within 110 to 111.1 °C. At hMAO-A, the IC50 is greater than 40 µM. At hMAO-B, the inhibition at 1 µM amounted to 22.4%.
Consider `O=C(/C=C/c1ccc2ccccc2c1)c1ccccc1` [Compound 2, (E)-3-(naphthalen-2-yl)-1-phenylprop-2-en-1-one], for which, on hMAO-A, the IC50 was greater than 40 µM. Moreover, the inhibition at 1 µM on hMAO-B worked out at 18.1%.
`O=C(/C=C/c1ccc2c(c1)OCO2)c1ccc(Cl)cc1` [Compound 28, (E)-3-(benzo[d][1,3]dioxol-5-yl)-1-(4-chlorophenyl)prop-2-en-1-one]: the IC50 on hMAO-A is greater than 40 µM. The compound also yielded an inhibition at 1 µM against hMAO-B of 57.5%.
In the case of `O=C(C=Cc1ccccc1)c1ccccc1` [Compound 1, 1,3-diphenyl-2-propen-1-one], the IC50 at hMAO-A is greater than 40 µM; on hMAO-B, 13.04 ± 0.06 µM.
Take `O=C(/C=C/c1ccc2c(c1)OCCO2)c1ccc(O)cc1` [Compound 7, (E)-3–(2,3-dihydrobenzo[b][1,4]dioxin-6-yl)-1-(4-hydroxyphenyl)prop-2-en-1-one]: the IC50 at hMAO-A was greater than 40 µM. The same compound yielded an inhibition at 1 µM against hMAO-B of 26%.
Taken in the same sequence, the figures for `O=C(/C=C/c1ccc2c(c1)OCCO2)c1ccc(Cl)cc1` [Compound 18, (E)-1–(4-chlorophenyl)-3–(2,3-dihydrobenzo[b][1,4]dioxin-6-yl)prop-2-en-1-one] were greater than 40 µM and 69.9%.

Values taken from PMC7470127, “Design, synthesis, and evaluation of 1, 4-benzodioxan-substituted chalcones as selective and reversible inhibitors of human monoamine oxidase B” (Journal of Enzyme Inhibition and Medicinal Chemistry, 2020).
